Measurements: article PMC3804772, “Rational Design, Synthesis, and Biological Evaluation of Third Generation α-Noscapine Analogues as Potent Tubulin Binding Anti-Cancer Agents” (PLoS ONE, 2013)
Where two headings read alike, the source gives them in different places.

How the values were obtained:
tubulin [1] = test: Tubulin binding of noscapine and previously reported noscapinoids (literature values); conditions: Table 1; calculated from KD, ΔGbind = RT ln KD, T = 298 K
Procedure: Here ⟨ ⟩ represent the ensemble average, b represents the bound form of the ligand, f represents the free form of the ligand, and α, β, and γ are the coefficients. U vdw, U elec, and U cav are the van der Waals, electrostatic, and cavity energy terms in the SGB continuum solvent model. The cavity energy term, U cav, is proportional to the exposed surface area of the ligand. Various energy parameters included in equation 1 were calculated from the docked complex corresponding to each analogue using Liaison package as described previously. The average LIE energy terms were used for building the binding affinity model and estimation of binding free energies of noscapine derivatives. The α, β, and γ LIE fitting parameters were determined using Minitab statistical package (version 16.0, Minitab Inc.) by fitting the experimental binding affinities of training set molecules. A dataset consisting of 7 noscapine derivatives (compounds: 1, 2a-f; Figure 2) with known experimental binding affinities was used as a training set.

tubulin [2] = conditions: cited from earlier work
tubulin [3] = target: T1, tubulin (Bos taurus, UniProt P81947+Q6B856); test: Tubulin binding assay (quenching of intrinsic tryptophan fluorescence); set-up: species or system bovine; conditions: for Kd: 2 µM tubulin, PEM buffer pH 6.8, 37 °C, 45 min, mean ± S.D.; for Experimental ΔGbind: calculated from KD, ΔGbind = RT ln KD, T = 298 K
T1 construct: Tubulin devoid of microtubule-associated proteins (MAPs) was purified from bovine brain; from tissue; host or cells: bovine brain
Procedure: Tubulin devoid of microtubule-associated proteins (MAPs) was purified from bovine brain by cycles of temperature-dependent polymerization and depolymerization as described previously followed by phosphocellulose chromatography. The concentration of the tubulin was determined by the method of Bradford using BSA as the standard. Purified tubulin was quickly frozen as drops in liquid nitrogen and stored at - 80 °C until used.
Noscapinoids quench the […] intrinsic tryptophan fluorescence of tubulin in a concentration-dependent fashion as described previously. This has allowed an easy method for measuring the tubulin-noscapinoids interactions. Briefly, the compounds 5a, 6a-j (0-200 µM) were incubated with 2 µM tubulin in PEM buffer (100 mM PIPES, pH 6.8, 3 mM MgSO4, and 1 mM EGTA) at 37 °C for 45 min. After incubation, the samples were excited at 295 nm. The relative intrinsic fluorescence intensity of the tubulin was then monitored in the absence and presence of the compound 5a, 6a-j using a Varian Cary Eclipse Fluorescence Spectrophotometer (Agilent Technologies, CA, USA). The emission readings were recorded at 335 nm. We used a 0.3 cm path-length cuvette to minimize the inner filter effects caused by the absorbance of the noscapinoids. In addition, the inner filter effects were corrected using a formula F corrected = F observed·antilog [(A ex + A em)/2], where A ex is the absorbance at the excitation wavelength and A em is the absorbance at the emission wavelength. The equilibrium dissociation constant (KD) was determined by the formula: 1/a = KD/[free ligand] + 1, where a is the fractional occupancy and [free ligand] is the concentration of free ligand. The fractional occupancy (a) was determined by the formula a = ΔF/ΔF max, where ΔF is the change in fluorescence intensity when tubulin and its ligand are in equilibrium and ΔF max is the value of maximum fluorescence change when tubulin is completely bound with its ligand. ΔF max was calculated by plotting 1/ΔF versus 1/ligand, using total ligand concentration as the first estimate of free ligand concentration. Three independent experiments were performed for each noscapinoid.

[4] = test system: human lymphoblast cell line (CEM); test: In vitro cell proliferation assay (SRB), CEM; assay type: cell-based; conditions: 72 h, mean ± S.D.
Procedure: (§1) The cell proliferation assay was performed in 96-well plates as described previously. A panel of four cancer cell lines of different tissues of origins, namely: human lung adenocarcinoma epithelial cell line (A549), human lymphoblast cell line (CEM), human cervix cell line (HeLa) and human breast epithelial cell line (MCF-7) were studied. These cell lines were obtained from the National Repository of Animal Cell Culture, National Centre for Cell Sciences, Pune (NCCS), India. Briefly, 2 x10^3 cells were seeded in each well and were incubated with gradient concentrations of 5a, 6a-j compounds for 72 h. The cells were then fixed with 50% trichloroacetic acid and stained with 0.4% sulforhodamine B (SRB) dissolved in 1% acetic acid. Cells were then washed with1% acetic acid to remove excess (unbound) SRB. The protein-bound SRB was dissolved with 10 mM Tris base and the absorbance at 564 nm was determined using a SPECTRAmax PLUS 384 microplate spectrophotometer.

[5] = test system: human cervix cell line (HeLa); test: In vitro cell proliferation assay (SRB), HeLa; assay type: cell-based; conditions: 72 h, mean ± S.D.
Procedure: as §1

[6] = test system: human lung adenocarcinoma epithelial cell line (A549); test: In vitro cell proliferation assay (SRB), A549; assay type: cell-based; conditions: 72 h, mean ± S.D.
Procedure: as §1

[7] = test system: human breast epithelial cell line (MCF-7); test: In vitro cell proliferation assay (SRB), MCF-7; assay type: cell-based; conditions: MCF7, 72 h, mean ± S.D.
Procedure: as §1

[8] = test system: cancer cells of different tissues of origin (CEM, HeLa, A549, MCF-7); test: In vitro cell proliferation assay (SRB), panel of four cancer cell lines; assay type: cell-based; conditions: Homo sapiens; range over cancer cells of different tissues of origin
Procedure: as §1

MCF-7 cells = test: Cell cycle analysis by flow cytometry (propidium iodide); assay type: cell-based, human; conditions: MCF-7, 25 µM
Procedure: The flow cytometric evaluation of the cell cycle status was performed as described previously. Briefly, cells (2 x 10^6) treated with the noscapinoids up to 72 h were centrifuged, washed twice with cold PBS, and fixed in 70% ethanol. Tubes containing the cell pellets were stored at 4 °C for minimum of 24 h. Cells were then centrifuged at 1000 x g for 10 min and the supernatant was discarded. The pellets were washed twice with 5 ml of PBS and then stained with 0.5 ml of propidium iodide (0.1% of Pl + 0.6% Triton-X in PBS) and 0.5 ml of RNase A (2 mg/ml) for 45 minutes in dark. Samples were then analyzed on a FACS Calibur flow cytometer ([…]).

[9] = Table 1, training set with known experimental binding affinities, mean ± S.D., read-out: KD value

T1 sequence (Q6B856 whole entry): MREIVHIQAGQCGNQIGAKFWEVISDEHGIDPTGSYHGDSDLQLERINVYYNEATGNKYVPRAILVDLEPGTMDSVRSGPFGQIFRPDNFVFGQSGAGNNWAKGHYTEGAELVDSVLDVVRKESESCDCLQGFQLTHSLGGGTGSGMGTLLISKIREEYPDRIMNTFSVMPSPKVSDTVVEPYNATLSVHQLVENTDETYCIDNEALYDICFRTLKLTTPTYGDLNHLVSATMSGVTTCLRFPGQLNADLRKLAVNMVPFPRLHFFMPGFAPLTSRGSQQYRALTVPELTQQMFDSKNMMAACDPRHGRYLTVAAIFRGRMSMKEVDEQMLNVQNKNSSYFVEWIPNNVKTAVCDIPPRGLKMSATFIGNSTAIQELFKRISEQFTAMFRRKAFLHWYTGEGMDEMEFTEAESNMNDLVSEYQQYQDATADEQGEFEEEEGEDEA
T1 sequence (P81947 whole entry): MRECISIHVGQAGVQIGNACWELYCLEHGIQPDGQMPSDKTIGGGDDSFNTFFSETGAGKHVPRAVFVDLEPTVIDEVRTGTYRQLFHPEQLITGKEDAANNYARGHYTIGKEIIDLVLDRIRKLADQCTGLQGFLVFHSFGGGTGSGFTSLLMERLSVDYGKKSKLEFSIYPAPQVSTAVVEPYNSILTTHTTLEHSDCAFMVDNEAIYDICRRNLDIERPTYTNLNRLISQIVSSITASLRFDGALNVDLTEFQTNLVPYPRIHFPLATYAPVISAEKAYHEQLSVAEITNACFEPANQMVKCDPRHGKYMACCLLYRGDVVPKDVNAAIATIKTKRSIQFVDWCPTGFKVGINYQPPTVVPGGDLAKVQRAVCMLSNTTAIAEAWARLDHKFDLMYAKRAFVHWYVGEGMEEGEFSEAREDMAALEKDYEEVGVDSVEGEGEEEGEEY

Row | Compound | Experimental ΔGbind (tubulin [1]) | Kd (tubulin [3]) | Experimental ΔGbind (tubulin [3]) | IC50 [5] | IC50 [6] | IC50 [7] | melting point | Kd (tubulin [2]; [9]) | IC50 [4] | Cell cycle parameters % G0/G1, 24 hours (MCF-7 cells) | Cell cycle parameters % G2/M, 24 hours (MCF-7 cells) | Cell cycle parameters % S, 24 hours (MCF-7 cells) | Cell cycle parameters % Sub-G1, 24 hours (MCF-7 cells) | Cell cycle parameters % G0/G1, 72 hours (MCF-7 cells) | Cell cycle parameters % G2/M, 72 hours (MCF-7 cells) | Cell cycle parameters % S, 72 hours (MCF-7 cells) | Cell cycle parameters % Sub-G1, 72 hours (MCF-7 cells) | further results
1 | COc1ccc2c(c1OC)C(=O)O[C@@H]2[C@H]1c2c(c(F)c3c(c2OC)OCO3)CCN1C [Compound 2a] | -5.587 kcal/mol |  |  |  |  |  |  | 81 ± 8 µM |  |  |  |  |  |  |  |  |  | 
2 | COc1ccc2c(c1OC)C(=O)O[C@@H]2[C@H]1c2c(c(N=[N+]=[N-])c3c(c2OC)OCO3)CCN1C [Compound 2f] | -6.628 kcal/mol |  |  |  |  |  |  | 14 ± 1 µM |  |  |  |  |  |  |  |  |  | 
3 | COc1ccc2c(c1OC)C(=O)O[C@@H]2[C@H]1c2c(c(Br)c3c(c2OC)OCO3)CCN1C [Compound 2c, 9-bromonoscapine] | -5.827 kcal/mol |  |  |  |  |  |  | 54 ± 9.1 µM |  |  |  |  |  |  |  |  |  | 
4 | COc1ccc2c(c1OC)C(=O)O[C@@H]2[C@H]1c2c(c(Cl)c3c(c2OC)OCO3)CCN1C [Compound 2b] | -6.006 kcal/mol |  |  |  |  |  |  | 40 ± 8 µM |  |  |  |  |  |  |  |  |  | 
5 | COc1ccc2c(c1OC)C(=O)O[C@@H]2[C@H]1c2c(c([N+](=O)[O-])c3c(c2OC)OCO3)CCN1C [Compound 2e] | -5.551 kcal/mol |  |  |  |  |  |  | 86 ± 6 µM |  |  |  |  |  |  |  |  |  | 
6 | COc1ccc2c(c1OC)C(=O)O[C@@H]2[C@H]1c2c(cc3c(c2OC)OCO3)CCN1C [Compound 1, noscapine] | -5.246 kcal/mol |  |  | 24 ± 2.9 µM | 72.9 ± 4.6 µM | 42.3 ± 2.7 µM |  |  | 14.5 ± 2.5 µM | 19.48% | 62.38% | 4.19% | 7.24% | 19.05% | 37.36% | 8.53% | 30.62% | Binding stoichiometry, noscapine molecule per tubulin dimer (tubulin [2]): 0.95 ± 0.02; Kd (tubulin [2]; values quoted in the text for comparison, read-out: Equilibrium dissociation constant (KD)): 144 ± 1 µM
7 | COc1ccc2c(c1OC)C(=O)O[C@@H]2[C@H]1c2c(c(I)c3c(c2OC)OCO3)CCN1C [Compound 2d] | -6.360 kcal/mol |  |  |  |  |  |  | 22 ± 4 µM |  |  |  |  |  |  |  |  |  | 

Continued, in another order:

Row | Experimental ΔGbind (tubulin [1]) | Kd (tubulin [3]) | Experimental ΔGbind (tubulin [3]) | IC50 [5] | IC50 [6] | IC50 [7] | melting point | Compound | Kd (tubulin [2]; [9]) | IC50 [4] | Cell cycle parameters % G0/G1, 24 hours (MCF-7 cells) | Cell cycle parameters % G2/M, 24 hours (MCF-7 cells) | Cell cycle parameters % S, 24 hours (MCF-7 cells) | Cell cycle parameters % Sub-G1, 24 hours (MCF-7 cells) | Cell cycle parameters % G0/G1, 72 hours (MCF-7 cells) | Cell cycle parameters % G2/M, 72 hours (MCF-7 cells) | Cell cycle parameters % S, 72 hours (MCF-7 cells) | Cell cycle parameters % Sub-G1, 72 hours (MCF-7 cells) | further results
8 |  | 38 ± 4 µM | -6.036 kcal/mol | 15.3 ± 0.5 µM | 26.9 ± 1.4 µM | 24.5 ± 0.8 µM | 65 °C | COc1ccc2c(c1OC)C(=O)O[C@@H]2[C@H]1c2c(cc3c(c2OC)OCO3)CCN1Cc1cccc(Br)c1 [Compound 6f, (S)-3-((R)-6-(3-bromobenzyl)-4-methoxy-5,6,7,8-tetrahydro-[1,3]dioxolo[4,5-g]isoquinolin-5-yl)-6,7-dimethoxyisobenzofuran-1(3H)-one] |  | 6.7 ± 0.3 µM | 11.82% | 67.48% | 6.29% | 9.47% | 6.38% | 37.29% | 4.72% | 50.44% | Tubulin binding affinity relative to the parent compound noscapine (tubulin [3]; ratio of KD values): ~ 4.0 times; IC50 [8]: 6.7 to 26.9 µM
9 |  | 91 ± 8 µM | -5.518 kcal/mol | 23.7 ± 1.5 µM | 49 ± 2.5 µM | 38.2 ± 2.5 µM | 154 °C | COc1ccc2c(c1OC)C(=O)O[C@@H]2[C@H]1c2c(cc3c(c2OC)OCO3)CCN1Cc1ccc([N+](=O)[O-])cc1 [Compound 6c, (S)-6,7-dimethoxy-3-((R)-4-methoxy-6-(4-nitrobenzyl)-5,6,7,8-tetrahydro-[1,3]dioxolo[4,5-g]isoquinolin-5-yl)isobenzofuran-1(3H)-one] |  | 10 ± 0.8 µM | 20.72% | 63.49% | 4.85% | 8.08% | 15.38% | 38.41% | 8.27% | 36.73% | 
10 |  | 79 ± 8 µM | -5.602 kcal/mol | 22.3 ± 1.2 µM | 45.4 ± 2.5 µM | 36 ± 1.9 µM | 155 °C | COC(=O)CN1CCc2cc3c(c(OC)c2[C@@H]1[C@H]1OC(=O)c2c1ccc(OC)c2OC)OCO3 [Compound 6i, Methyl 2-((R)-5-((S)-4,5-dimethoxy-3-oxo-1,3-dihydroisobenzofuran-1-yl)-4-methoxy-7,8-dihydro-[1,3]dioxolo[4,5-g]isoquinolin-6(5H)-yl)acetate] |  | 9.5 ± 0.7 µM | 19.57% | 63.38% | 4.62% | 12.25% | 14.37% | 37.15% | 6.43% | 40.18% | 
